Measured values from US5607967A, “Treatment of alzheimer's disease with 5-(tetradecyloxy)-2-furan carboxylic acid” (Merck & Co., Inc., priority 1994, dated 1997).

Columns and labels:
[1] = target: T1, GR/NUC chimeric receptor (Homo sapiens, UniProt Q03181); experiment: Ligand dependent transcription assay, GR/NUC chimeric receptor with MMTV-luciferase reporter; assay type: cell-based
T1 construct: transfected cells, MMTV-luciferase
T1 sequence (Q03181 1-441): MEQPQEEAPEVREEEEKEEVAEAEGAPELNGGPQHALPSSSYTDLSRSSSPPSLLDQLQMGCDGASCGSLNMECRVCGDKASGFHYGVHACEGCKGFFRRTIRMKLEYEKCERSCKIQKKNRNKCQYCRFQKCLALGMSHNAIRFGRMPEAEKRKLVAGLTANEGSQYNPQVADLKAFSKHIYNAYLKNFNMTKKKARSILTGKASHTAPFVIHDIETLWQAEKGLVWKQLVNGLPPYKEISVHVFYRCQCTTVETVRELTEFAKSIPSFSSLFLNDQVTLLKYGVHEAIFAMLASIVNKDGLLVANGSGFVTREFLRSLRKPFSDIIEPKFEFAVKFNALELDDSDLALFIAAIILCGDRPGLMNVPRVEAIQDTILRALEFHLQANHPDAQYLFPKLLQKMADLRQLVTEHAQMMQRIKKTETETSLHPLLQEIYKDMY
T1 sequence (P06537 1-792 partner): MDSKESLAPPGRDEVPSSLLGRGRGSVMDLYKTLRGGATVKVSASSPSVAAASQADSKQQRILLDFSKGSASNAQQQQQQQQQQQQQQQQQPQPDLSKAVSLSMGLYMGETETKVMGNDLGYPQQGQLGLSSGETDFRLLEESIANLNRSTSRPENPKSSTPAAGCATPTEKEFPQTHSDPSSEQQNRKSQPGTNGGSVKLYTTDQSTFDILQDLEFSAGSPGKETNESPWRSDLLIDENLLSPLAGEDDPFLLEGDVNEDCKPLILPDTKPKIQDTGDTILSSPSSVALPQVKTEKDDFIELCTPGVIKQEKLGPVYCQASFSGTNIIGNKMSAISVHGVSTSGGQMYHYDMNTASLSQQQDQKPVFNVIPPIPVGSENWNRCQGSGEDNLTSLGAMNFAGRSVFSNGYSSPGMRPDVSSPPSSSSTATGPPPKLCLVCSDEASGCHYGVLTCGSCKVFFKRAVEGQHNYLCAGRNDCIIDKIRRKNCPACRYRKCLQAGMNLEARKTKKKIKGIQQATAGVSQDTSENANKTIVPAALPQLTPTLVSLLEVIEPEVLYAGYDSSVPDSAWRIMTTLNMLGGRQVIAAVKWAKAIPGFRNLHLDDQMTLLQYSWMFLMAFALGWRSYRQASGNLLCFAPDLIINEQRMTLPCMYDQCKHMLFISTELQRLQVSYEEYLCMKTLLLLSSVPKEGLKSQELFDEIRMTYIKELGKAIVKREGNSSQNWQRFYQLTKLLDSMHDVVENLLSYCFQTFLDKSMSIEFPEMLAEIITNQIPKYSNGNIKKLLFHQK
Method: Similar hybrid receptors GR/NER, GR/NUC and GR/PPAR, in identical expression plasmid backgrounds were prepared essentially as described for the construction of the GR/mPPAR and GR/NUC chimeric receptors in Schmidt et al., "Identification of a new member of the steroid hormone receptor superfamily that is activated by a peroxisome proliferator and fatty acids," Mol. Endocrinol., 6(10):1634-41, 1992, and in Boie et al., "Enantioselective activation of the peroxisome proliferator-activated receptor", J. Biol. Chem. 268(8):5530-4, 1993.
Briefly, the amino terminal portion of the mouse glucocorticoid receptor (mGR), that includes the DNA binding domain was fused to the putative ligand binding domains of the nuclear receptor NER, hNUC-I (Schmidt et al., 1992), mPPAR (Issenmann and Green, 1990) to form the respective chimeric receptors GR/NER, GR/NUC and GR/PPAR. The GR/NER chimeric receptor was constructed as described for the GR/NUC and GR/PPAR hybrid receptors (Schmidt et al., 1992; Boie et al). The cDNA sequences coding for amino acids Arg^155 and Glu^156 of the NER receptor were converted to the Xho I restriction site, that was later used for the ligation to the GR cDNA sequences that coded for the DNA binding domain. Thus, converting amino acid residues Arg^155 and Glu^156 of NER receptor to amino acid residues Ser^155 and His^156.

[2] = target: T2, GR/PPAR chimeric receptor (Mus musculus, UniProt P23204); experiment: Ligand dependent transcription assay, GR/PPAR chimeric receptor with MMTV-luciferase reporter; assay type: cell-based; conditions: read-out: Fold of stimulation GR/PPAR
T2 construct: COS cells, MMTV-luciferase
T2 sequence (P23204 1-468): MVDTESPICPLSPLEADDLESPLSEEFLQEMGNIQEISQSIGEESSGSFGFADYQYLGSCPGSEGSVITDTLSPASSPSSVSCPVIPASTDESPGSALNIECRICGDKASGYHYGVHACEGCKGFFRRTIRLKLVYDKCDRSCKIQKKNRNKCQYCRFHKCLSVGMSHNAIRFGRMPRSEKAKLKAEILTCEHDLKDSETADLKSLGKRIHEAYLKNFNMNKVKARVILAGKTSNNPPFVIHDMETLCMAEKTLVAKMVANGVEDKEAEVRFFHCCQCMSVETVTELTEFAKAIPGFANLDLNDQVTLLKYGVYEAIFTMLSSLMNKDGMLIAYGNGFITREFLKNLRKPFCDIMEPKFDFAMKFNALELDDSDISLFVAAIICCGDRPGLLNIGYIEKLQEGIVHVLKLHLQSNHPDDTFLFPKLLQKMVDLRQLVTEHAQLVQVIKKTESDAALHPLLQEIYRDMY
T2 sequence (P06537 1-792 partner): T1 sequence (P06537 1-792 partner)

[3] = target: T3, native mouse glucocorticoid receptor (Mus musculus, UniProt P06537); experiment: Transcription assay, native glucocorticoid receptor co-transfected with MMTV-luciferase reporter
T3 sequence (P06537 1-792): T1 sequence (P06537 1-792 partner)
Method: The reporter gene was the plasmid pJA358 in which the expression of firefly luciferase is regulated by two tandem repeats of the glucocorticoid hormone response element (GRE) linked to the MMTV promoter (Boie et al., 1993).
Transient transfection of COS and CV1 cells was performed as described (Schmidt 1992). Cells were plated (1.5×10^5 in 1 mL) into 12 well dishes in phenol red-free medium supplemented with activated charcoal treated fetal calf serum. The next day 0.12 mL of DNA 10 μg/ml (5 μg receptor DNA and 5 μg reporter plasmid), as a calcium phosphate precipitate, was added to the cells. Ligands were added to the cells 30 minutes after transfection. The next day (18 hours), the cells were washed and fresh ligands added. Twenty-four hours later, cell extracts were prepared and assayed for luciferase enzyme activity using the luciferase assay system (Promega Madison, Wis.). Each transfection was performed in triplicate and the luciferase activity of each sample measured in duplicate using the AutoClinilumat (Berthold Nashua, N.H.).
The transfected cells were treated with TOFA at 2 μM, 10 μM, 20 μM, and 50 μM and oleic acid at 50 μM, and 300 μM.

[4] = read-out: Fold of stimulation GR/NUC
[5] = read-out: Fold of stimulation GR

## CCCCCCCCCCCCCCOc1ccc(C(=O)O)o1 [TOFA, 5-(tetradecyloxy)-2-furan carboxylic acid]
[1]
  Expression mediated by GR/NUC: stimulated expression
[1]; [4]
  fold induction at 2 µM: 1.95 ± 0.14
  fold induction at 10 µM: 2.85 ± 0.2
  fold induction at 50 µM: 3.19 ± 0.2
[2]
  fold induction at 2 µM: 2.89 ± 0.13
  fold induction at 20 µM: 5.75 ± 0.14
[3]
  Expression of MMTV-luciferase reporter after co-transfection of native glucocorticoid receptor: did not stimulate expression
[3]; [5]
  fold induction at 2 µM: 1.02 ± 0.4
  fold induction at 10 µM: 0.8 ± 0.14
  fold induction at 50 µM: 0.91 ± 0.3
